Measured values from US11370776B2, “Sulfonylureas and sulfonylthioureas as NLRP3 inhibitors” (Inflazome Limited, priority 2017, dated 2022).
Counter-ions that a name gives are not always drawn.

Experiments:
NLRP3 [1] = biological target: T1, NLRP3 (Homo sapiens, UniProt Q96P20); assay: THP-1 cells pyroptosis assay; format: cell-based; set-up: Seed THP-1 cells (25,000 cells/well) containing 1.0 μg/ml LPS; host or cells: THP-1 cells, LPS-primed, nigericin-stimulated; details: for IC50: THP-1 cells, 1.0 μg/ml LPS, nigericin 5 μM, pyroptosis read with resazurin, read-out: THP IC50; for NLRP3 inhibitory activity (in words): THP-1 pyroptosis assay
T1 sequence (Q96P20 whole entry): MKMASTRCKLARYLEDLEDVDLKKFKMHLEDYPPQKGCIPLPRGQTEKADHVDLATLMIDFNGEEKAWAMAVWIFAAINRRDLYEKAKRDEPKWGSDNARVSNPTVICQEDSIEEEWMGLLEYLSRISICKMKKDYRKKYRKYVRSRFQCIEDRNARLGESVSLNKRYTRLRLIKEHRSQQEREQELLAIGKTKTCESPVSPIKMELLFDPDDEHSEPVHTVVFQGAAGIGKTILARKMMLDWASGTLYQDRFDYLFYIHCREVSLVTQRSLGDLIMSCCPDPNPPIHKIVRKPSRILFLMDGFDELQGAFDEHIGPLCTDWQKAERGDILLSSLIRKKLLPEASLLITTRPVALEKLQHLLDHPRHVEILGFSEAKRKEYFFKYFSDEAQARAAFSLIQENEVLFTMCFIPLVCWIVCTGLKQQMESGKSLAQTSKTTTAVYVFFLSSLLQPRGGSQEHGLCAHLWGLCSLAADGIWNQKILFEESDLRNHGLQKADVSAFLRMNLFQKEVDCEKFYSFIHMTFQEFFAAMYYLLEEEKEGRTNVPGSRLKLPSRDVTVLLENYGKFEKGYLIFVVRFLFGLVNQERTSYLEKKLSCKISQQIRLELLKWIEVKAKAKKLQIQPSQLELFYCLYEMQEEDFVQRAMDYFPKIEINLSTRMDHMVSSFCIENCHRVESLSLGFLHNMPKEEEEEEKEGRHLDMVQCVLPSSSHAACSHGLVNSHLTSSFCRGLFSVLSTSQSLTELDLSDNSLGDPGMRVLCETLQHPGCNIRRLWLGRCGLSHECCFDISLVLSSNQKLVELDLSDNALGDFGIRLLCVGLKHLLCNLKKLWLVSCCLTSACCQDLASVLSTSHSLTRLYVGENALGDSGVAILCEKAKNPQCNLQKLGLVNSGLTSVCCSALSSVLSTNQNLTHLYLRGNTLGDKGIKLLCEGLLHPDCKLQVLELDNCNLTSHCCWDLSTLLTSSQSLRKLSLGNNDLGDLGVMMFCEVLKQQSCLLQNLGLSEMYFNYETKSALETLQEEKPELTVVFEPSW
Experimental: The cells were routinely passaged and grown to confluency (˜10^6 cells/ml). On the day of the experiment, THP-1 cells were harvested and resuspended into RPMI medium (without FBS). The cells were then counted and viability (>90%) checked by Trypan blue (Sigma # T8154). […] To this diluted cell solution was added LPS (Sigma # L4524) to give a 1 μg/ml Final Assay Concentration (FAC). 40 μl of the final preparation was aliquoted into each well of a 96-well plate. The plate thus prepared was used for compound screening. THP-1 Cells Pyroptosis Assay The following method step-by-step assay was followed for compound screening. • 1. […] Add 5 μl nigericin (Sigma # N7143) (FAC 5 μM) to all wells • 5. […] At the end of the incubation period, spin plates at 300×g for 3 mins and remove supernatant • 7. Then add 50 μl of resazurin (Sigma # R7017) (FAC 100 μM resazurin in RPMI medium without FBS) and incubate plates for a further 1-2 hrs at 37° C. and 5% CO2 • 8. […] IC50 data is fitted to a non-linear regression equation (log inhibitor vs response-variable slope 4-parameters) [table]

NLRP3 [2] = biological target: T1, NLRP3; assay: Human whole blood IL1β release assay; format: cell-based; set-up: Human whole blood in Li-heparin tubes was obtained from healthy donors; from tissue; host or cells: human whole blood from healthy donors, LPS-primed, nigericin-stimulated; details: human whole blood, 1 μg/ml LPS, nigericin 10 μM, IL-1β release; read-out: HWB IC50
Experimental: Human Whole Blood IL1β Release Assay
For systemic delivery, the ability to inhibit NLRP3 when the compounds are present within the bloodstream is of great importance. For this reason, the NLRP3 inhibitory activity of a number of compounds in human whole blood was investigated in accordance with the following protocol.
Human whole blood in Li-heparin tubes was obtained from healthy donors from a volunteer donor panel. • 1. […] Incubate for 3 hrs at 37° C., 5% CO2 • 4. Add 10 μl Nigericin (Sigma # N7143) (10 μM FAC) to all wells • 5. Incubate for 1 hr at 37° C., 5% CO2 • 6. At the end of the incubation period, spin plates at 300×g for 5 mins to pellet cells and remove 20 μl of supernatant and add to 96-well v-bottom plates for IL-1β analysis (note: these plates containing the supernatants can be stored at −80° C. to be analysed at a later date) • 7. IL-1β was measured according to the manufacturer protocol (Perkin Elmer-AlphaLisa IL-1 Kit AL220E-5000) • 8. IC50 data is fitted to a non-linear regression equation (log inhibitor vs response-variable slope 4-parameters)

Compound: CN(C)c1cncc(S(=O)(=O)NC(=O)Nc2c3c(cc4c2CCC4)CCC3)n1 [Example 27, 6-(Dimethylamino)-N-((1,2,3,5,6,7-hexahydro-s-indacen-4-yl)carbamoyl)pyrazine-2-sulfonamide, Potassium Salt]
- IC50 (NLRP3 [1]): < 800 nM
- IC50 (NLRP3 [2]): < 7500 nM

Compound: COc1cc(-c2ccc3c(c2NC(=O)NS(=O)(=O)c2ccnc(C(C)C)c2)CCC3)ccn1 [Example 60, 2-Isopropyl-N-((5-(2-methoxypyridin-4-yl)-2,3-dihydro-1H-inden-4-yl)carbamoyl)pyridine-4-sulfonamide, sodium salt]
- IC50 (NLRP3 [1]): < 800 nM
- IC50 (NLRP3 [2]): < 2500 nM

Compound: O=C(Nc1c2c(cc3c1CCC3)CCC2)NS(=O)(=O)c1cncnc1 [Example 10, N-((1,2,3,5,6,7-Hexahydro-s-indacen-4-yl)carbamoyl) pyrimidine-5-sulfonamide, Potassium Salt]
- IC50 (NLRP3 [1]): < 10000 nM
- IC50 (NLRP3 [2]): < 7500 nM

Compound: CC(C)c1cc(F)cc(-c2ccnc(C#N)c2)c1NC(=O)NS(=O)(=O)c1cc(N(C)C)cnn1 [Example 50, N-((2-(2-Cyanopyridin-4-yl)-4-fluoro-6-isopropylphenyl)carbamoyl)-5-(dimethylamino) pyridazine-3-sulfonamide]
- IC50 (NLRP3 [1]): < 800 nM
- IC50 (NLRP3 [2]): < 2500 nM

Compound: Cc1cc(C)nc(S(=O)(=O)NC(=O)Nc2c3c(cc4c2CCC4)CCC3)n1 [Example 18, N-((1,2,3,5,6,7-Hexahydro-s-indacen-4-yl)carbamoyl)-4,6-dimethyl pyrimidine-2-sulfonamide, Potassium Salt]
- IC50 (NLRP3 [1]): < 800 nM
- NLRP3 inhibitory activity (in words) (NLRP3 [1]): highly active
- IC50 (NLRP3 [2]): < 2500 nM

Compound: CC(C)c1cc(F)cc(-c2ccnc(C#N)c2)c1NC(=O)NS(=O)(=O)c1cnc(N(C)C)cn1 [Example 38, N-((2-(2-Cyanopyridin-4-yl)-4-fluoro-6-isopropylphenyl)carbamoyl)-5-(dimethylamino)pyrazine-2-sulfonamide]
- IC50 (NLRP3 [1]): < 800 nM
- IC50 (NLRP3 [2]): < 2500 nM

Compound: CC(C)c1cccc(C(C)C)c1NC(=O)NS(=O)(=O)c1cccnn1 [Example 7, N-((2,6-Diisopropylphenyl)carbamoyl)pyridazine-3-sulfonamide, Sodium Salt]
- IC50 (NLRP3 [1]): < 10000 nM
- IC50 (NLRP3 [2]): < 2500 nM

Compound: COc1cc(-c2ccc3c(c2NC(=O)NS(=O)(=O)c2cnc(N(C)C)cn2)CCC3)ccn1 [Example 40, 5-(Dimethylamino)-N-((5-(2-methoxypyridin-4-yl)-2,3-dihydro-1H-inden-4-yl)carbamoyl)pyrazine-2-sulfonamide]
- IC50 (NLRP3 [1]): < 800 nM
- IC50 (NLRP3 [2]): < 2500 nM

Compound: COc1cc(-c2ccc3c(c2NC(=O)NS(=O)(=O)c2cc(N(C)C)cnn2)CCC3)ccn1 [Example 52, 5-(Dimethylamino)-N-((5-(2-methoxypyridin-4-yl)-2,3-dihydro-1H-inden-4-yl)carbamoyl) pyridazine-3-sulfonamide]
- IC50 (NLRP3 [1]): < 800 nM
- IC50 (NLRP3 [2]): < 2500 nM

Compound: CN(C)c1cncc(S(=O)(=O)NC(=O)Nc2c(-c3ccncc3)cc(F)c3c2CCC3)n1 [Example 37, 6-(Dimethylamino)-N-((7-fluoro-5-(pyridin-4-yl)-2,3-dihydro-1H-inden-4-yl)carbamoyl)pyrazine-2-sulfonamide]
- IC50 (NLRP3 [1]): < 800 nM
- IC50 (NLRP3 [2]): < 2500 nM

Compound: COc1cc(-c2ccc3c(c2NC(=O)NS(=O)(=O)c2nc(C)cc(C)n2)CCC3)ccn1 [Example 48, N-((5-(2-Methoxypyridin-4-yl)-2,3-dihydro-1H-inden-4-yl)carbamoyl)-4,6-dimethylpyrimidine-2-sulfonamide]
- IC50 (NLRP3 [1]): < 800 nM
- NLRP3 inhibitory activity (in words) (NLRP3 [1]): highly active
- IC50 (NLRP3 [2]): < 2500 nM

Compound: CN(C)c1cnnc(S(=O)(=O)NC(=O)Nc2c(-c3ccncc3)cc(F)c3c2CCC3)c1 [Example 53, 5-(Dimethylamino)-N-((7-fluoro-5-(pyridin-4-yl)-2,3-dihydro-1H-inden-4-yl)carbamoyl) pyridazine-3-sulfonamide]
- IC50 (NLRP3 [1]): < 800 nM
- IC50 (NLRP3 [2]): < 2500 nM

Compound: Nc1ncc(S(=O)(=O)NC(=O)Nc2c3c(cc4c2CCC4)CCC3)cn1 [Example 9, 2-Amino-N-((1,2,3,5,6,7-hexahydro-s-indacen-4-yl)carbamoyl) pyrimidine-5-sulfonamide, Potassium Salt]
- IC50 (NLRP3 [1]): < 2000 nM
- IC50 (NLRP3 [2]): < 2500 nM

Compound: Cc1cc(C)nc(S(=O)(=O)NC(=O)Nc2c(-c3ccncc3)cc(F)c3c2CCC3)n1 [Example 49, N-((7-Fluoro-5-(pyridin-4-yl)-2,3-dihydro-1H-inden-4-yl)carbamoyl)-4,6-dimethylpyrimidine-2-sulfonamide]
- IC50 (NLRP3 [1]): < 800 nM
- NLRP3 inhibitory activity (in words) (NLRP3 [1]): highly active
- IC50 (NLRP3 [2]): < 2500 nM

Compound: COc1cc(-c2ccc3c(c2NC(=O)NS(=O)(=O)c2ccc(CN(C)C)nc2)CCC3)ccn1 [Example 58, 6-((Dimethylamino)methyl)-N-((5-(2-methoxypyridin-4-yl)-2,3-dihydro-1H-inden-4-yl)carbamoyl)pyridine-3-sulfonamide]
- IC50 (NLRP3 [1]): < 800 nM
- IC50 (NLRP3 [2]): < 2500 nM
